# Legend:
# 5/2 cells = assay: Growth-supporting activity on 5/2 cells in serum-free ITLB medium; type: cell-based, human
# Description: The assay was done in 96-well microtiter plates in a final volume of 200 ul/well. The cells were cultured for 72 hours and cell growth determined by [^3 H] thymidine (0.8 μCi/well)labeling for the last 16 hours. Retinoids were added at the indicated concentrations at the initiation of culture and every 24 hours thereafter.
# 5/2 cells were grown in the absence of retinol in a medium containing the basic RPMI 1640 amino acid/salt mixture, insulin (5 μg/ml), transferrin (5 μg/ml), albumin (0.1%) and linoleic acid (10^-6 M) (ITLB). […] The dose-response curve shown in FIG. 26 indicates an effective concentration of 10^-7 M.
# T cells = assay: T cell activation and proliferation, retinol cofactor requirement; type: cell-based, murine
# Description: They were seeded into 96-well flat-bottom plates at varying cellular densities in a final volume of 100 μl. In control experiments, cells were cultured in medium containing 10% FCS or 3% human serum and 5×10^-5 M 2ME. […] Cultures were carried out in duplicate. Plates were incubated at 37° C. in a humidified 5% CO2 atmosphere. Cellular proliferation was determined by [^3 H] thymidine uptake (0.5 uCi/well; New England Nuclear, Boston, Mass.) after the incubation times indicated for each experiment with a 4 hour labeling pulse. Cells were harvested onto glass filter and [^3 H]TdR incorporation was determined by liquid scintillation counting. The data presented are the means of duplicate or six replicate cultures. The restriction to duplicate measurements was necessary to conserve scarce 14HRR. […] Each experiment was repeated at least twice.
# lymphoblastoid 5/2 cells = assay: Conversion of 13,14DHR to 14HRR by lymphoblastoid cells; type: in vitro ADME, human; details: 10^-6 M, 1 and 2 hours, ITLB medium
# Description: FIGS. 25A through 25D. 13,14DHR can be converted to 14HRR by lymphoblastoid cells. 200,000 5/2 cells/ml were incubated with or without 10^-6 M 13,14DHR added in serum-free ITLB medium. After 1 and 2 hours, cells pellets corresponding to 10 ml of culture were delipidated and the corresponding lipid fractions separated on an analytical C18 reversed-phase column according to FIG. 20. Peaks were identified according to their retention times and their UV absorption patterns.
# Lymphoblastoid 5/2 cells devoid of retinol were cultured in the presence or absence of 10^-6 M 13,14DHR for 1 and 2 hours in ITLB medium. The retinoids extracted from the cell pellets were separated by HPLC according to FIG. 20. […] There was no 14HRR measurable in control cultures.
# 5/2 lymphoblastoid cells = assay: Kinetics of biosynthesis of 13,14DHR and 14HRR from 3H retinol in 5/2 lymphoblastoid cells; type: in vitro ADME, human
# Description: FIG. 24. Kinetics of biosynthesis of 14HRR in lymphoblastoid cells. 50 ml ITLB 600,000 5/2 cells/ml were incubated with 20 μCi of ^3 H retinol in serum-free ITLB medium. Cell pellets corresponding to 10 ml of culture were delipidated at 20 minute intervals and the corresponding lipid fraction separated on an analytical C18 reversed-phase column (see FIG. 20). Radioactive peaks were identified by coelution with cold reference retinoids.
# The kinetics of biosynthesis of 13,14DHR and 14HRR were determined in 5/2 lymphoblastoid cells. These cells were cultured in the presence of ^3 H retinol for different time periods, and the cell-associated retinoids extracted as referenced above. They were then chromatographed on an analytical C18 column as described in FIG. 20. The sizes of peaks emerging at 16.8 minutes, representing 13,14DHR, and 18.5 minutes, representing 14HRR, were measured and plotted in the bar diagram of FIG. 24.
compound,measurement,setting,value
"CC1=C(/C=C/C(C)=C/C=C/C(C)(O)C(O)CO)C(C)(C)CCC1 (stereo not shown) [13,14DHR, 13,14-dihydroxy-retinol]",restoration of proliferation in absence of retinol,5/2 cells,proliferation was restored as well
same,ability to substitute for retinol in T cell activation (words),T cells,can effectively substitute for retinol
same,conversion to 14HRR,lymphoblastoid 5/2 cells,produced 14HRR
same,order of metabolite production,5/2 lymphoblastoid cells,"production of 13,14DHR precedes that of 14HRR"

# — patent publication US5814612A, “Retinol derivatives and uses thereof” (priority 1992, dated 1998)
